Experimental data published in patent publication US20260256792A1, “TREATMENT OF CHRONIC SPONTANEOUS URTICARIA BY ADMINISTERING (R)-2-[3-[4-AMINO-3-(2-FLUORO-4-PHENOXY-PHENYL)PYRAZOLO[3,4-D]PYRIMIDIN-1-YL]PIPERIDINE-1-CARBONYL]-4-METHYL-4-[4-(OXETAN-3-YL)PIPERAZIN-1-YL]PENT-2-ENENITRILE” (priority 2023, published 2026).

System: moderate-to-severe chronic spontaneous urticaria (CSU)
Assay: Phase 2 CSU study: hives severity score over 7 days (HSS7)
Type: in vivo, human
Set-up: key to HSS7 Change from baseline, Median / HSS7, Median / HSS7, Max / HSS7 Change from baseline, Q1 / HSS7 Change from baseline, Q3 / HSS7 Change from baseline, Max: 7-day sum of daily hive scores, each 0 = none to 3 = >50 hives
Conditions: for median reduction in HSS7 at Week 12: omalizumab-naïve population; for HSS7, Mean (SD) / HSS7, Median: End of Study; for HSS7 change from baseline at Week 12, LS Mean / HSS7 change from baseline at Week 12, LS Mean Diff vs. placebo: ANCOVA
From the text: The study comprises a 12 week, randomized, double-blind, placebo-controlled, multi-center, dose-ranging efficacy and safety phase, followed by a 40 week open label extension (OLE) phase (see FIG. 1).
The study consists of three phases and an optional OLE phase.
The UAS is a validated PRO measure. The daily UAS is the sum of the daily Hive Severity Score (HSS, ranging from 0=None to 3=more than 50 hives) and the daily Itch Severity Score (ISS, ranging from 0=None to 3=intense), the 2 key urticaria signs and symptoms which are wheals and itch. The daily UAS scores range from 0 to 6 point/day. Daily UAS scores are summed over 7-day period to create the UAS7, ranging from 0 to 42, and are composed of the HSS7 and ISS7 components. […] Patients were to complete the UAS using the e-diary. The e-diary was to be used once daily on the same time of each day recording of participant's answers to the urticaria activity score over 7 days (UAS7) questionnaire. For participants who entered the OLE phase, their answers to the UAS7 questionnaire were also to be collected from Week 20 to Week24 and from Week 48 to Week 52.
The following secondary endpoints were to be analyzed using the same approach as for the primary endpoint: • Change from baseline in UAS7 at Week 4 • Change from baseline in UAS7 at Week 12 (for US and US reference countries) • Change from baseline in ISS7 at Week 12 (except US and US reference countries) • Change from baseline in HSS7 at Week 12

[1] = 400 mg TID, Week 9, ITT Population
[2] = 400 mg TID, Week 9, Omalizumab-Naïve Population
[3] = 400 mg TID, Week 10, ITT Population
[4] = 400 mg TID, Week 11, ITT Population
[5] = 400 mg TID, Week 12, ITT population
[6] = 400 mg TID, patients with prior omalizumab use, last block under Week 12, double-blind period, WOCF imputation
[7] = 400 mg BID, Omalizumab-Naïve Population
[8] = 400 mg QPM, Omalizumab-Naïve Population
[9] = 400 mg TID, Patients with Prior Omalizumab Use
[10] = Omalizumab-Naïve Population with Outlier Removed from Analysis, 400 mg BID
[11] = Omalizumab-Naïve Population with Outlier Removed from Analysis, 400 mg QPM
[12] = Omalizumab-Naïve Population with Outlier Removed from Analysis, 400 mg TID
[13] = Omalizumab-naïve Population, 400 mg BID
[14] = Omalizumab-naïve Population, 400 mg QPM
[15] = Omalizumab-naïve Population, 400 mg TID

For `CC(C)(C=C(C#N)C(=O)N1CCC[C@@H](n2nc(-c3ccc(Oc4ccccc4)cc3F)c3c(N)ncnc32)C1)N1CCN(C2COC2)CC1` [rilzabrutinib, (R)-2-[3-[4-amino-3-(2-fluoro-4-phenoxy-phenyl)pyrazolo[3,4-d]pyrimidin-1-yl]piperidine-1-carbonyl]-4-methyl-4-[4-(oxetan-3-yl)piperazin-1-yl]pent-2-enenitrile], the “HSS7 Postbaseline Mean (SD)” value (400 mg TID, Week 8, Omalizumab-Naïve Population) was 6.12 (4.80), the “HSS7 Postbaseline Mean (SD)” value (400 mg TID, Week 8, Omalizumab-Naïve Population with Outlier Removed from Analysis) was 6.12 (4.80) and the “HSS7 % Change difference for rilzabrutinib vs.placebo LS Mean (95% CI)” value (shortened to “HSS7 % Change difference … (95% CI)”) [1] was −29.14 %. The “HSS7 % Change from baseline LS Mean (SE)” value [1] was −53.06 (6.70) %, the “HSS7 Change difference for rilzabrutinib vs.placebo LS Mean (95% CI)” value (shortened to “HSS7 Change difference … (95% CI)”) [1] was −3.67 (−6.21, −1.13) and the “HSS7 Change from baseline LS Mean (SE)” value [1] was −7.79 (0.94). For the same compound, the “HSS7 Postbaseline Mean (SD)” value [1] was 5.43 (4.93), the “HSS7 % Change difference … (95% CI)” value [2] was −27.94 % and the “HSS7 Postbaseline Mean (SD)” value [2] was 5.88 (4.98). The “HSS7 Postbaseline Mean (SD)” value (400 mg TID, Week 9, Omalizumab-Naïve Population with Outlier Removed from Analysis) was 5.88 (4.98), the “HSS7 % Change difference … (95% CI)” value [3] was −28.54 % and the “HSS7 % Change from baseline LS Mean (SE)” value [3] was −56.54 (6.68) %. For the same compound, the “HSS7 Change difference … (95% CI)” value [3] was −3.55 (−6.13, −0.97), the “HSS7 Change from baseline LS Mean (SE)” value [3] was −8.15 (0.96) and the “HSS7 Postbaseline Mean (SD)” value [3] was 5.39 (5.05). For the same compound, the “HSS7 Postbaseline Mean (SD)” value (400 mg TID, Week 10, Omalizumab-Naïve Population) was 5.87 (5.06), the “HSS7 Postbaseline Mean (SD)” value (400 mg TID, Week 10, Omalizumab-Naïve Population with Outlier Removed from Analysis) was 5.87 (5.06) and the “HSS7 % Change difference … (95% CI)” value [4] was −28.42 %. For the same compound, the “HSS7 % Change from baseline LS Mean (SE)” value [4] was −54.96 (6.95) %, the “HSS7 Change difference … (95% CI)” value [4] was −3.55 (−6.14, −0.95) and the “HSS7 Change from baseline LS Mean (SE)” value [4] was −8.09 (0.96). The “HSS7 Postbaseline Mean (SD)” value [4] was 5.60 (5.41), the “HSS7 Postbaseline Mean (SD)” value (400 mg TID, Week 11, Omalizumab-Naïve Population) was 6.17 (5.40) and the “HSS7 Postbaseline Mean (SD)” value (400 mg TID, Week 11, Omalizumab-Naïve Population with Outlier Removed from Analysis) was 6.17 (5.40). For the same compound, the “HSS7 % Change difference … (95% CI)” value [5] was −29.54 %, the “HSS7 % Change from baseline LS Mean (SE)” value [5] was −57.27 (7.06) % and the “HSS7 Change difference … (95% CI)” value [5] was −3.42 (−6.11, −0.74). For the same compound, the “HSS7 Change from baseline LS Mean (SE)” value [5] was −8.31 (1.00), the “HSS7 Postbaseline Mean (SD)” value [5] was 4.92 (4.89) and the “HSS7 Postbaseline Mean (SD)” value (400 mg TID, Week 12, Omalizumab-Naïve Population) was 5.23 (4.86). The “HSS7 Postbaseline Mean (SD)” value (400 mg TID, Week 12, Omalizumab-Naïve Population with Outlier Removed from Analysis) was 5.23 (4.86), the “median reduction in HSS7 at Week 12” value (400 mg TID) was −7.64 and the “median reduction in HSS7 at Week 12” value (400 mg TID, outlier removed) was −7.89. The “HSS7, Max” value [6] was 8.2, the “HSS7, Min” value [6] was 4.0 and the “HSS7 Change from baseline, Max” value [6] was 0.0. The “HSS7 Change from baseline, Mean (SD)” value [6] was −2.00 (2.83), the “HSS7 Change from baseline, Median” value [6] was −2.00 and the “HSS7 Change from baseline, Min” value [6] was −4.0. The “HSS7 Change from baseline, Q1” value [6] was −4.00, the “HSS7 Change from baseline, Q3” value [6] was 0.00 and the “HSS7 Percent change from baseline, Max” value [6] was 0.0%. For the same compound, the “HSS7 Percent change from baseline, Mean (SD)” value [6] was −25.00 (35.36) percent, the “HSS7 Percent change from baseline, Median” value [6] was −25.00% and the “HSS7 Percent change from baseline, Min” value [6] was −50.0%. The “HSS7 Percent change from baseline, Q1” value [6] was −50.00%, the “HSS7 Percent change from baseline, Q3” value [6] was 0.00% and the “HSS7, Mean (SD)” value [7] was 7.80 (8.76). For the same compound, the “HSS7, Median” value [7] was 7.00, the “HSS7, Mean (SD)” value [8] was 6.13 (9.09) and the “HSS7, Median” value [8] was 1.40. The “HSS7, Mean (SD)” value (400 mg TID, Omalizumab-Naïve Population) was 10.00 (5.79), the “HSS7, Mean (SD)” value [9] was 6.08 (2.95) and the “HSS7, Median” value [9] was 6.08. The “HSS7 at Week 12, Mean” value (ITT Population, 400 mg BID) was 7.08, the “HSS7 at Week 12, Median” value (ITT Population, 400 mg BID) was 6.00 and the “HSS7 change from baseline at Week 12, Mean” value (ITT Population, 400 mg BID) was −7.81. The “HSS7 change from baseline at Week 12, Median” value (ITT Population, 400 mg BID) was −5.30, the “HSS7 change from baseline at Week 12, LS Mean” value (ITT Population, 400 mg BID) was −6.78 and the “HSS7 change from baseline at Week 12, LS Mean Diff vs. placebo” value (“HSS7 change … LS Mean Diff vs. placebo” for short) (ITT Population, 400 mg BID) was −1.89. The “HSS7 at Week 12, Median” value (ITT Population, 400 mg QPM) was 8.75, the “HSS7 change from baseline at Week 12, Mean” value (ITT Population, 400 mg QPM) was −5.05 and the “HSS7 change from baseline at Week 12, Median” value (ITT Population, 400 mg QPM) was −4.00. The “HSS7 change from baseline at Week 12, LS Mean” value (ITT Population, 400 mg QPM) was −4.75, the “HSS7 change … LS Mean Diff vs. placebo” value (ITT Population, 400 mg QPM) was 0.14 and the “HSS7 at Week 12, Mean” value (ITT Population, 400 mg TID) was 4.92. The “HSS7 at Week 12, Median” value (ITT Population, 400 mg TID) was 3.50, the “HSS7 change from baseline at Week 12, Mean” value (ITT Population, 400 mg TID) was −9.62 and the “HSS7 change from baseline at Week 12, Median” value (ITT Population, 400 mg TID) was −9.00. The “HSS7 change from baseline at Week 12, LS Mean” value (ITT Population, 400 mg TID) was −8.31, the “HSS7 change … LS Mean Diff vs. placebo” value (ITT Population, 400 mg TID) was −3.42 and the “HSS7 at Week 12, Mean” value [10] was 7.52. The “HSS7 at Week 12, Median” value [10] was 7.00, the “HSS7 change from baseline at Week 12, Mean” value [10] was −7.09 and the “HSS7 change from baseline at Week 12, Median” value [10] was −4.50. For the same compound, the “HSS7 change from baseline at Week 12, LS Mean” value [10] was −6.56, the “HSS7 change … LS Mean Diff vs. placebo” value [10] was −2.20 and the “HSS7 at Week 12, Median” value [11] was 8.58. For the same compound, the “HSS7 change from baseline at Week 12, Mean” value [11] was −4.85, the “HSS7 change from baseline at Week 12, Median” value [11] was −4.00 and the “HSS7 change from baseline at Week 12, LS Mean” value [11] was −4.57. The “HSS7 change … LS Mean Diff vs. placebo” value [11] was −0.22, the “HSS7 at Week 12, Mean” value [12] was 5.23 and the “HSS7 at Week 12, Median” value [12] was 4.08. For the same compound, the “HSS7 change from baseline at Week 12, Mean” value [12] was −8.77, the “HSS7 change from baseline at Week 12, Median” value [12] was −8.00 and the “HSS7 change from baseline at Week 12, LS Mean” value [12] was −7.89. The “HSS7 change … LS Mean Diff vs. placebo” value [12] was −3.54, the “HSS7 at Week 12, Mean” value [13] was 7.52 and the “HSS7 at Week 12, Median” value [13] was 7.00. The “HSS7 change from baseline at Week 12, Mean” value [13] was −7.09, the “HSS7 change from baseline at Week 12, Median” value [13] was −4.50 and the “HSS7 change from baseline at Week 12, LS Mean” value [13] was −6.52. The “HSS7 change … LS Mean Diff vs. placebo” value [13] was −2.12, the “HSS7 at Week 12, Median” value [14] was 8.58 and the “HSS7 change from baseline at Week 12, Mean” value [14] was −4.85. The “HSS7 change from baseline at Week 12, Median” value [14] was −4.00, the “HSS7 change from baseline at Week 12, LS Mean” value [14] was −4.49 and the “HSS7 change … LS Mean Diff vs. placebo” value [14] was −0.09. For the same compound, the “HSS7 at Week 12, Mean” value [15] was 5.23, the “HSS7 at Week 12, Median” value [15] was 4.08 and the “HSS7 change from baseline at Week 12, Mean” value [15] was −8.77. The “HSS7 change from baseline at Week 12, Median” value [15] was −8.00 and the “HSS7 change from baseline at Week 12, LS Mean” value [15] was −7.64.
